Where “and” joins values, the source holds several entries; their conditions need not be identical. Equal values may be shown once.
Test system: 885512-296-R-J2-PDC complex spheroid growth, % test/control
Experiment: Anticancer human tumor 885512-296-R-J2-PDC patient-derived breast carcinoma cell line growth inhibition [AhR]
Conditions: for viability, T/C: stronger effect = lower value
How it was run: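 Agents were dosed in half-log steps down from roughly clinical Cmax, or from 10 microM where Cmax was unknown, alone and with AhR antagonists. Read-out: percent test/control growth of tumor spheroids containing HUVEC and MSC stromal cells.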

[1] = curve of first compound, second compound 0.1 µM
[2] = curve of first compound, second compound 0.316 µM
[3] = curve of first compound, second compound 1 µM
[4] = curve of first compound, second compound 3.16 µM
[5] = curve of first compound, second compound 10 µM
[6] = second compound 0.1 µM, first compound 0.0316 µM
[7] = second compound 0.1 µM, first compound 0.1 µM
[8] = second compound 0.316 µM, first compound 0.0316 µM
[9] = second compound 0.316 µM, first compound 0.1 µM
[10] = second compound 1 µM, first compound 0.0316 µM
[11] = second compound 1 µM, first compound 0.1 µM
[12] = second compound 3.16 µM, first compound 0.0316 µM
[13] = second compound 3.16 µM, first compound 0.1 µM
[14] = second compound 10 µM, first compound 0.0316 µM
[15] = second compound 10 µM, first compound 0.1 µM
[16] = second compound 0.1 µM, first compound 0.316 µM
[17] = second compound 0.1 µM, first compound 1 µM
[18] = second compound 0.1 µM, first compound 3.16 µM
[19] = second compound 0.1 µM, first compound 10 µM
[20] = second compound 0.316 µM, first compound 0.316 µM
[21] = second compound 0.316 µM, first compound 1 µM
[22] = second compound 0.316 µM, first compound 3.16 µM
[23] = second compound 0.316 µM, first compound 10 µM
[24] = second compound 1 µM, first compound 0.316 µM
[25] = second compound 1 µM, first compound 1 µM
[26] = second compound 1 µM, first compound 3.16 µM
[27] = second compound 1 µM, first compound 10 µM
[28] = second compound 3.16 µM, first compound 0.316 µM
[29] = second compound 3.16 µM, first compound 1 µM
[30] = second compound 3.16 µM, first compound 3.16 µM
[31] = second compound 3.16 µM, first compound 10 µM
[32] = second compound 10 µM, first compound 0.316 µM
[33] = second compound 10 µM, first compound 1 µM
[34] = second compound 10 µM, first compound 3.16 µM
[35] = second compound 10 µM, first compound 10 µM
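Further: spheroids exposed to compounds for seven days.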

CC[C@@]1(O)C(=O)OCc2c1cc1n(c2=O)Cc2cc3c(CN(C)C)c(O)ccc3nc2-1 + CC(CO)NC(=O)c1cc(-c2ccc(Cl)cc2)nn(-c2cnn(C)c2)c1=O
IC50 [1]: 11.4 nM
IC50 [2]: 11.7 nM
IC50 [3]: 10.7 nM
IC50 [4]: 7.84 nM
IC50 [5]: 8.12 nM
viability, T/C (second compound 0.1 µM, first compound 0.000316 µM): 104%
viability, T/C (second compound 0.1 µM, first compound 0.001 µM): 107%
viability, T/C (second compound 0.1 µM, first compound 0.00316 µM): 87.9%
viability, T/C (second compound 0.1 µM, first compound 0.01 µM): 58.3%
viability, T/C [6]: 8.77%
viability, T/C [7]: 4.56%
viability, T/C (second compound 0.316 µM, first compound 0.000316 µM): 92.6%
viability, T/C (second compound 0.316 µM, first compound 0.001 µM): 94.5%
viability, T/C (second compound 0.316 µM, first compound 0.00316 µM): 87.9%
viability, T/C (second compound 0.316 µM, first compound 0.01 µM): 57%
viability, T/C [8]: 7.83%
viability, T/C [9]: 5.61%
viability, T/C (second compound 1 µM, first compound 0.000316 µM): 110%
viability, T/C (second compound 1 µM, first compound 0.001 µM): 107%
viability, T/C (second compound 1 µM, first compound 0.00316 µM): 92.8%
viability, T/C (second compound 1 µM, first compound 0.01 µM): 54.5%
viability, T/C [10]: 10%
viability, T/C [11]: 6.33%
viability, T/C (second compound 3.16 µM, first compound 0.000316 µM): 117%
viability, T/C (second compound 3.16 µM, first compound 0.001 µM): 106%
viability, T/C (second compound 3.16 µM, first compound 0.00316 µM): 81.4%
viability, T/C (second compound 3.16 µM, first compound 0.01 µM): 43%
viability, T/C [12]: 10.9%
viability, T/C [13]: 4.27%
viability, T/C (second compound 10 µM, first compound 0.000316 µM): 89.4%
viability, T/C (second compound 10 µM, first compound 0.001 µM): 93%
viability, T/C (second compound 10 µM, first compound 0.00316 µM): 75.1%
viability, T/C (second compound 10 µM, first compound 0.01 µM): 46.2%
viability, T/C [14]: 10%
viability, T/C [15]: 7.97%

CC1COCCN1c1cc(C2(S(C)(=N)=O)CC2)nc(-c2ccnc3[nH]ccc23)n1 (configuration not stated) + Cc1ccccc1N=Nc1ccc(NC(=O)c2ccnn2C)c(C)c1
IC50 [1]: 1870 nM
IC50 [2]: 1700 nM
IC50 [3]: 1790 nM
IC50 [4]: 1840 nM
IC50 [5]: 637 nM
viability, T/C [6]: 108%
viability, T/C [7]: 102%
viability, T/C [16]: 96.3%
viability, T/C [17]: 87%
viability, T/C [18]: 19%
viability, T/C [19]: 4.98%
viability, T/C [8]: 103%
viability, T/C [9]: 127%
viability, T/C [20]: 106%
viability, T/C [21]: 77.9%
viability, T/C [22]: 17.9%
viability, T/C [23]: 5.69%
viability, T/C [10]: 108%
viability, T/C [11]: 117%
viability, T/C [24]: 95%
viability, T/C [25]: 83.6%
viability, T/C [26]: 17.4%
viability, T/C [27]: 5.01%
viability, T/C [12]: 90%
viability, T/C [13]: 92%
viability, T/C [28]: 97.6%
viability, T/C [29]: 85.7%
viability, T/C [30]: 17.9%
viability, T/C [31]: 5.33%
viability, T/C [14]: 56.9%
viability, T/C [15]: 53.3%
viability, T/C [32]: 49.6%
viability, T/C [33]: 48.2%
viability, T/C [34]: 13.4%
viability, T/C [35]: 5.82%

CC(C)c1c(-c2ccccc2)nc2c(C#N)c[nH]n2c1=O + Cc1ccccc1N=Nc1ccc(NC(=O)c2ccnn2C)c(C)c1
IC50 [1]: > 10000 nM
IC50 [2]: > 10000 nM
IC50 [3]: > 10000 nM
IC50 [4]: > 10000 nM
IC50 [5]: < 31.6 nM
viability, T/C [6]: 105%
viability, T/C [7]: 106%
viability, T/C [16]: 108%
viability, T/C [17]: 110%
viability, T/C [18]: 111%
viability, T/C [19]: 104%
viability, T/C [8]: 106%
viability, T/C [9]: 104%
viability, T/C [20]: 111%
viability, T/C [21]: 104%
viability, T/C [22]: 102%
viability, T/C [23]: 99.4%
viability, T/C [10]: 96.2%
viability, T/C [11]: 94.4%
viability, T/C [24]: 98.4%
viability, T/C [25]: 98.6%
viability, T/C [26]: 90%
viability, T/C [27]: 96.4%
viability, T/C [12]: 80.9%
viability, T/C [13]: 79.2%
viability, T/C [28]: 82.7%
viability, T/C [29]: 88%
viability, T/C [30]: 81.8%
viability, T/C [31]: 67.3%
viability, T/C [14]: 45.5%
viability, T/C [15]: 50.8%
viability, T/C [32]: 55.2%
viability, T/C [33]: 45.4%
viability, T/C [34]: 47.4%
viability, T/C [35]: 42%

Nc1ccn(C2OC(CO)C(O)C2(F)F)c(=O)n1 (configuration not stated) + Cc1cncc(-c2nc(NCCc3c[nH]c4ccccc34)c3ncn(C(C)C)c3n2)c1
IC50 [1]: < 31.6 nM
IC50 [2]: < 31.6 nM
IC50 [3]: < 31.6 nM
IC50 [4]: < 31.6 nM
IC50 [5]: < 31.6 nM
viability, T/C [6]: 3.33%
viability, T/C [7]: 4.05%
viability, T/C [16]: 4.69%
viability, T/C [17]: 4.03%
viability, T/C [18]: 3.99%
viability, T/C [19]: 4.46%
viability, T/C [8]: 3.3%
viability, T/C [9]: 3.9%
viability, T/C [20]: 3.76%
viability, T/C [21]: 4.54%
viability, T/C [22]: 4.43%
viability, T/C [23]: 3.99%
viability, T/C [10]: 3.48%
viability, T/C [11]: 3.69%
viability, T/C [24]: 3.49%
viability, T/C [25]: 4.33%
viability, T/C [26]: 3.22%
viability, T/C [27]: 3.99%
viability, T/C [12]: 5.82%
viability, T/C [13]: 4.2%
viability, T/C [28]: 4.2%
viability, T/C [29]: 4.17%
viability, T/C [30]: 4.29%
viability, T/C [31]: 3.8%
viability, T/C [14]: 8.48%
viability, T/C [15]: 8.12%
viability, T/C [32]: 3.15%
viability, T/C [33]: 2.99%
viability, T/C [34]: 2.64%
viability, T/C [35]: 2.75%

CCN(c1cc(-c2ccc(CN3CCOCC3)cc2)cc(C(=O)NCc2c(C)cc(C)[nH]c2=O)c1C)C1CCOCC1
viability, T/C (compound 0.00949 µM): 99.4% and 113% and 105%
viability, T/C (compound 0.03 µM): 116% and 94.8% and 94.7%
viability, T/C (compound 0.0949 µM): 93% and 86.7% and 98.8%
viability, T/C (compound 0.3 µM): 89.7% and 91.3% and 78.9%
viability, T/C (compound 0.949 µM): 86.7% and 77.8% and 76.2%
viability, T/C (compound 3 µM): 72.8% and 67.7% and 80.9%
IC50 (curve of compound): > 3000 nM

Nc1ncn(C2CC(O)C(CO)S2)c(=O)n1 (configuration not stated) + CC(CO)NC(=O)c1cc(-c2ccc(Cl)cc2)nn(-c2cnn(C)c2)c1=O
IC50 [1]: 273 nM
IC50 [2]: > 300 nM
IC50 [3]: > 300 nM
IC50 [4]: 234 nM
IC50 [5]: 274 nM
viability, T/C (second compound 0.1 µM, first compound 0.000949 µM): 98.8%
viability, T/C (second compound 0.1 µM, first compound 0.003 µM): 117%
viability, T/C (second compound 0.1 µM, first compound 0.00949 µM): 108%
viability, T/C (second compound 0.1 µM, first compound 0.03 µM): 125%
viability, T/C (second compound 0.1 µM, first compound 0.0949 µM): 77%
viability, T/C (second compound 0.1 µM, first compound 0.3 µM): 47.5%
viability, T/C (second compound 0.316 µM, first compound 0.000949 µM): 106%
viability, T/C (second compound 0.316 µM, first compound 0.003 µM): 92.9%
viability, T/C (second compound 0.316 µM, first compound 0.00949 µM): 146%
viability, T/C (second compound 0.316 µM, first compound 0.03 µM): 111%
viability, T/C (second compound 0.316 µM, first compound 0.0949 µM): 80.5%
viability, T/C (second compound 0.316 µM, first compound 0.3 µM): 54.2%
viability, T/C (second compound 1 µM, first compound 0.000949 µM): 106%
viability, T/C (second compound 1 µM, first compound 0.003 µM): 104%
viability, T/C (second compound 1 µM, first compound 0.00949 µM): 113%
viability, T/C (second compound 1 µM, first compound 0.03 µM): 127%
viability, T/C (second compound 1 µM, first compound 0.0949 µM): 81.4%
viability, T/C (second compound 1 µM, first compound 0.3 µM): 54.1%
viability, T/C (second compound 3.16 µM, first compound 0.000949 µM): 97.9%
viability, T/C (second compound 3.16 µM, first compound 0.003 µM): 101%
viability, T/C (second compound 3.16 µM, first compound 0.00949 µM): 112%
viability, T/C (second compound 3.16 µM, first compound 0.03 µM): 87.2%
viability, T/C (second compound 3.16 µM, first compound 0.0949 µM): 72.2%
viability, T/C (second compound 3.16 µM, first compound 0.3 µM): 43.9%
viability, T/C (second compound 10 µM, first compound 0.000949 µM): 101%
viability, T/C (second compound 10 µM, first compound 0.003 µM): 96.3%
viability, T/C (second compound 10 µM, first compound 0.00949 µM): 100%
viability, T/C (second compound 10 µM, first compound 0.03 µM): 93.1%
viability, T/C (second compound 10 µM, first compound 0.0949 µM): 70.8%
viability, T/C (second compound 10 µM, first compound 0.3 µM): 48.2%

Reference: PubChem BioAssay AID1919006 (Molecular Pharmacology Branch, DTP, NCI, 2023)
